Laboratory results reported in US9371301B2, “Prenylarene compound and use thereof” (Osaka University, priority 2010, dated 2016).
Entries after “also recorded” stand apart in the source; their conditions may differ.

Assays:
[1] = tested on: human prostate cancer DU145 cells; test: Selective inhibitory activity on hypoxic cancer cell growth (MTT, hypoxic conditions 1% O2); type: cell-based; details: for selective inhibitory activity on hypoxic cell growth: 24 h, MTT
Method: (§1) Analog-k5, which is represented by formula (II), and analog-k6, which is represented by formula (III), were used as test compounds and furospinosulin-1 was used as the control compound. The test compounds and the control compound were separately dissolved in EtOH, and the respective solutions were prepared at predetermined concentrations. The cells used were human prostate cancer DU145 cells. Analog-k6 was synthesized according to the method described in Example 1 for synthesis of analog-k5 except for using 3-bromothiophene instead of 3-bromofuran.
To each well of 96-well multiwell plates, 200 μL (1×10^4 cells/well) of a DU145 cell suspension was added, and preculture was performed under conditions of 5% CO2 and 37° C. for 4 hours. Then, the multiwell plates were placed in a hypoxic culture chamber (manufactured by Mitsubishi Gas Chemical Company, Inc.) of 1% O2, 5% CO2 and 94% N2 (hypoxic conditions) and culture was performed for 12 hours. Then, the test compound solutions in EtOH were added to the corresponding wells in a volume of 2 μL per well, and culture was further continued under hypoxic conditions for 24 hours. After 24 hours of culture, MTT (3-(4,5-dimethylthiazol-2-yl)-2,5-diphenyltetrazolium bromide) reagent prepared at 200 μg/mL was added in a volume of 50 μL per well, and culture was performed under conditions of 5% CO2 and 37° C. for 3 hours. Next, after removal of the culture medium, the resulting MTT formazan was extracted with 200 μL of DMSO per well. The amount of the formazan dye was quantified by a colorimetric method (OD 560 nm) and the ratio of growth inhibition was calculated.
(§2) Analog-f9, which is represented by formula (VI), and analog-k13, which is represented by formula (CI), were used as the test compounds, and both were evaluated for the selective inhibitory activity on hypoxic cancer cell growth according to the same method as described in Example 5.

[2] = tested on: human prostate cancer DU145 cells; test: Inhibitory activity on normoxic cell growth (MTT); type: cell-based; details: for inhibitory activity on normoxic cell growth as compared with furospinosulin-1: in a high dose; for inhibitory activity on normoxic cell growth as compared with furospinosulin-1 / inhibitory activity on normoxic cell growth: DU145
Method: as §1
Meanwhile, the inhibitory activity of the test compounds on normoxic cell growth was measured in the following manner. To each well of 96-well multiwell plates, 200 μL (1×10^4 cells/well) of a DU145 cell suspension was added, and culture was performed under conditions of 5% CO2 and 37° C. for 12 hours. Then, the test compound solutions in EtOH were added to the corresponding wells in a volume of 2 μL per well, and culture was further continued under the same conditions for 24 hours. After 24 hours of culture, as is the case in hypoxic conditions, the MTT reagent was added and finally the ratio of growth inhibition was calculated.
as §2

Mouse sarcoma S180 cells [3] = test: Antitumor activity in mouse cancer cell transplant model; type: in vivo; details: ddY mice; for tumor weight, % of that of the control group / weight loss, diarrhea, visual abnormalities in organs: once every two days, 7 times; for tumor weight, % of that of the control group: S180; for weight loss, diarrhea, visual abnormalities in organs: all dose groups; for weight loss, diarrhea, visual abnormalities in organs / antitumor activity: oral; for antitumor activity: S180 transplant model
Method: A suspension of the test compound analog-k5 was prepared at predetermined concentrations in 1% CMC. The vehicle (1% CMC) was administered to the control group.
Mouse sarcoma S180 cells were prepared as a suspension of the density of 1×10^7 cells/mL in a serum-free RPMI culture medium and the suspension was kept on ice. Then, 100 μL (1×10^6 cells) each of the cell suspension was subcutaneously inoculated to the ventral side in female ddY mice (5-week old, six mice/group) with an injection needle of 23G. The mice were maintained for one week for engraftment of the […]. The test compound (10 mg/kg, 25 mg/kg and 50 mg/kg) or the vehicle (1% CMC) was orally administered on a schedule of once every two days, 7 times in total. The antitumor activity was evaluated as follows: one day after the final administration, tumors were isolated and weighed and then the tumor weight was compared between the test compound administration groups and the control group. Significance analysis was performed using a Dunnett's test at a significance level of 5%.
Analog-f9, which is represented by formula (VI), and analog-k13, which is represented by formula (CI), were used as the test compounds, and both were evaluated for the antitumor activity in a mouse cancer cell transplant model according to the same method as described in Example 6. However, the number of mice per group was changed to four, and the doses of test compounds were changed to 3 mg/kg, 10 mg/kg and 25 mg/kg.

[4] = tested on: insulin-like growth factor 2 (IGF-2); details: mechanism of action; Non Patent Literature 4; cited from earlier work
Mouse sarcoma S180 cells [5] = details: mice subcutaneously inoculated with S180 cells; Non Patent Literature 4; cited from earlier work
[6] = tested on: human prostate cancer DU145 cells; details: Non Patent Literature 4; cited from earlier work
[7] = at 1000 μM, DU145, hypoxic (1% O2) vs normoxic

SMILES | selective inhibitory activity on hypoxic cell growth [1, 7] | inhibitory activity on normoxic cell growth as compared with furospinosulin-1 [2] | tumor weight, % of that of the control group (Mouse sarcoma S180 cells [3]; 10 mg/kg oral) | tumor weight, % of that of the control group (Mouse sarcoma S180 cells [3]; 25 mg/kg oral) | tumor weight, % of that of the control group (Mouse sarcoma S180 cells [3]; 50 mg/kg oral) | weight loss, diarrhea, visual abnormalities in organs (Mouse sarcoma S180 cells [3]) | antitumor activity (Mouse sarcoma S180 cells [3]) | inhibitory activity on normoxic cell growth ([2]; concentrations of 10 μM or lower) | inhibitory activity on normoxic cell growth ([2]; concentrations of 100 μM or lower) | selective inhibition of hypoxic cell growth compared with furospinosulin-1 ([1]; entire range of tested concentrations, DU145) | tumor weight, % of that of the control group (Mouse sarcoma S180 cells [3]; 3 mg/kg oral) | hypoxia-inducible expression of IGF-2 [4] | selective inhibitory activity on hypoxic cell growth ([1]; concentrations of 300 μM or lower, DU145, hypoxic vs normoxic) | growth inhibitory activity against normoxic cells ([2]; at 1000 μM, DU145, 24 h, MTT) | in vivo tumor weight as compared with the control (Mouse sarcoma S180 cells [5]) | in vitro cancer cell growth inhibition, hypoxia selectivity [6]
CC(C)=CCC/C(C)=C/CC/C(C)=C/CC/C=C/CCc1ccoc1 [analog-k5] | showed selective inhibitory activity on hypoxic cell growth | lower inhibitory activity on normoxic cell growth | 70% | 41% | 28% | In no administration groups, weight loss or diarrhea, or visual abnormalities in organs of the mice were observed | showed marked antitumor activity | – | – | – | – | – | – | – | – | –
CC(C)=CCC/C(C)=C/CC/C(C)=C/CC/C=C/CCc1ccsc1 [analog-k6] | showed selective inhibitory activity on hypoxic cell growth | lower inhibitory activity on normoxic cell growth | – | – | – | – | – | – | – | – | – | – | – | – | – | –
CC(C)=CCC/C(C)=C/CC/C(C)=C/CC/C(C)=C/CC/C(C)=C/CCc1ccsc1 [analog-f9] | showed selective inhibitory activity on hypoxic cell growth | lower inhibitory activity on normoxic cell growth | 29% | 18% | – | In no administration groups, regardless of the kind of test compound, weight loss or diarrhea, or visual abnormalities in organs of the mice were observed | – | hardly inhibits normoxic cell growth | remarkably low inhibitory activity on normoxic cell growth | – | – | – | – | – | – | –
C#CCC/C(C)=C/CC/C(C)=C/CC/C(C)=C/CC/C(C)=C/CCc1ccoc1 [analog-k13] | showed selective inhibitory activity on hypoxic cell growth | lower inhibitory activity on normoxic cell growth | 41% | 28% | – | In no administration groups, regardless of the kind of test compound, weight loss or diarrhea, or visual abnormalities in organs of the mice were observed | showed marked antitumor activity | – | – | stronger than that of furospinosulin-1 | 70% | – | – | – | – | –
CC(C)=CCC/C(C)=C/CC/C(C)=C/CC/C(C)=C/CCc1ccoc1 [furospinosulin-1, reference compound] | equal growth inhibitory activity against normoxic cells and hypoxic cells; also recorded: not selective for hypoxic cells | – | – | – | – | – | – | – | – | – | – | inhibition of hypoxia-inducible expression of insulin-like growth factor 2 (IGF-2) | showed selective inhibitory activity on hypoxic cell growth | showed growth inhibitory activity even against normoxic cells | significantly reduces in vivo tumor weight | inhibits in vitro cancer cell growth in a hypoxia-selective manner
